Assays:
[1] = system: CRG-induced edema; test: Carrageenan paw edema (paw volume, plethysmometer); format: in vivo, mice; conditions: intraplantar pretreatment; 4 h after CRG injection
Protocol: Measurement of paw volume. Paw swelling (edema) after carrageenan injection was determined by water displacement plethysmometer (Ugo Basile, Italy). The Plethysmometer is a microcontrolled volume meter, specially designed for accurate measurement of the rat/mouse paw swelling. It consists of a water filled Perspex cell into which the paw is dipped. A transducer of original design records small differences in water level, caused by volume displacement.

[2] = system: proinflammatory cytokines (TNF-α, IL-1β, IL-6) and chemokines (MCP-1, MIP-1α); test: Cytokine array of inflamed hindpaw skin after carrageenan; format: in vivo, mouse; conditions: intraplantar RvE1 20 ng prior to CRG; 2 h after CRG
Protocol: The mouse cytokine array kits were purchased from R&D. Protein samples were prepared in the same way as for Western blotting analysis. Each reaction was performed according to manufacturer's protocol using 400 μg proteins. In brief, protein samples were incubated with a blot (array) that is pre-coated with 40 cytokines/chemokines for 24 h at 4° C. The remaining procedures were similar to that of Western blotting. Also see Gao et al., 2009^12.

[3] = system: lamina II neurons; test: Patch clamp recording of sEPSCs in lamina II neurons of spinal cord slices; format: cell-based, mice
Protocol: Spinal cord slice preparation. As previously reported^39, a portion of the lumbar spinal cord (L4-L5) was removed from young mice (3-4 week old) under urethane anesthesia (1.5-2.0 g/kg, i.p.) and transverse spinal cord slices were cut (600 μm) on a vibrating microslicer. The slices were perfused with Kreb's solution (8 ml/min) for >2 h prior to experiments. Some slices were stimulated with TNF-α (10 ng/ml, 5 min), the slices were fixed with 4% paraformaldehyde for 1 h, and processed pERK immunohistochemistry using thin sections (15 μm)^13.
Patch clamp recordings in spinal slices. Whole cell patch-clamp recordings were performed in lamina II neurons in voltage clamp mode^39. After establishing the whole-cell configuration, neurons were held at the holding potentials of −70 mV for recording spontaneous excitatory postsynaptic current (sEPSC). NMDA-induced currents were recorded by bath application of NMDA (50 μM, Sigma) at the holding potential of −50 mV. Membrane currents were amplified with an Axopatch 200A amplifier (Axon Instruments) in voltage-clamp mode. pCLAMP 6 was used and Mini Analysis (Synaptosoft Inc.) software to store and analyze the data. Those cells showing >5% changes from the baseline levels were reagrded as responding ones^24.
Resolvins were also used for intraplantar injection. RvD1 or RvE1 was injected into the plantar surface of a hindapaw [20 ng, 20 μl , in 1% ethanol (Supplementary FIG. 5a, 5b) or in 10% ethanol (FIG. 2e, Supplementary FIG. 1d)]. DRG cultures were incubated with RvE1 (10 ng/ml, 0.1% ethanol in culture medium) and perfused spinal cord slices with RvE1 (1 ng/ml, in 0.01% ethanol and Kreb's solution).
Perfusion of spinal cord slices: Spinal cord slices were incubated with chemerin (100 ng/ml, in Kreb's solution), TNF-α (10 ng/ml, in Kreb's solution), capsaicin (100 nM, in 0.01% DMSO and Kreb's solution), TRPV1 antagonist capsazepine (Sigma, 10 μM, in 0.01% DMSO and Kreb's solution), pertussix toxin (0.5 μg/ml, in Kreb's solution), and MEK inhibitor PD98059 and U0126 (CalBiochem, 1 μM, in 0.01% DMSO and Kreb's solution). For pertussix toxin treatment, spinal cord slices were incubated with the toxin for 3 h before stimulation.

[4] = system: phosphorylation of ERK (pERK); test: ERK phosphorylation (pERK) in cultured DRG neurons; format: cell-based, mice; conditions: dissociated DRG neurons; RvE1 10 ng/ml; TNF-α 10 ng/ml; capsaicin 500 nM
Protocol: Primary DRG culture. DRGs were aseptically removed from 4-week old mice and digested them first with collagenase (1.25 mg/ml)/dispase-II (2.4 units/ml) at 37° C. for 90 min then with 0.25% trypsin for 8 min at 37° C. DRG cells were mechanically dissociated with a flame polished Pasteur pipette in the presence of 0.05% DNAse I and plated these cells onto poly-D-lysine and laminin-coated slide chambers. DRG cells were grown in a neurobasal defined medium (with 2% B27 supplement, Invitrogen) in the presence of NGF (50 ng/ml) for 24 h and replaced the medium with NGF-free medium before stimulation. For immunocytochemistry, DRG cells were fixed with 4% paraformaldehyde for 30 min and incubated the cells with pERK primary antibody (rabbit, Cell signaling, 1:500) overnight.
Resolvins were also used for intraplantar injection. RvD1 or RvE1 was injected into the plantar surface of a hindapaw [20 ng, 20 μl , in 1% ethanol (Supplementary FIG. 5a, 5b) or in 10% ethanol (FIG. 2e, Supplementary FIG. 1d)]. […]
pERK immunocytochemistry in DRG neurons: DRG cells grown in slide chambers were fixed with 4% paraformaldehyde for 30 min and incubated with pERK primary antibody (Rabbit, Cell Signaling, 1:500) at 4° C. overnight. The stained cells were examined with a Nikon fluorescence microscope, and images in 3 randomly-selected optic fields from each chamber were captured with a CCD Spot camera. […]

[5] = system: paw incision-induced postoperative pain; test: Postoperative pain model induced by hindpaw incision; format: in vivo, mice; conditions: postoperative pain model induced by surgical incision
Protocol: Animals and pain models. Adult CD1 mice (male, 25-32 g) were used for most experiments. Knockout mice were used lacking TNFR1/II (Tnfrsf1a/1b^−/−) and TRPV1 (Trpv1^−/−) and C57BL/6 wild-type control mice, all from Jackson, for some experiments. All animal procedures performed in this study were approved by the Harvard Medical Area Standing Committee on Animals. 20 μl of diluted formalin (5%), carrageenan (CRG, 1%), or complete Freund's adjuvant (CFA) were injected into the plantar surface of a hindpaw to produce acute, persistent, or chronic inflammatory pain, respectively. Postoperative pain was also produced through hindpaw incision^36 and neuropathic pain by ligation of the spinal nerve^37.
Behavioral analysis. Mice were habituated in the testing environment for two days and performed behavioral testing in a blinded manner. Formalin-evoked spontaneous inflammatory pain was assessed by measuring duration (seconds) animals spent on licking/flinching the affected paws every 5 min for 45 min. Capsaicin-induced spontaneous pain was aslo assessed for 10 min. […] It was determined the 50% paw withdrawal threshold using Dixon's up-down method^40. […] The percent maximal possible antinociceptive effect (% M.P.E) was calculated using the equation % M.P.E.=[(PL−BL2)/(BL1−BL2)]×100. […]

In the case of CC[C@@H](O)/C=C/C=C\C[C@@H](O)/C=C/C=C/C=C\[C@@H](O)CCCC(=O)O [RvE1, 5S,12R,18R-trihydroxyeicosapentaenoic acid], the “CRG-induced edema (paw volume)” value [1] is reported as “reducing”, the “expression of proinflammatory cytokines (TNF-α, IL-1β, IL-6) and chemokines (MCP-1, MIP-1α) in inflamed hindpaws” value [2] is reported as “reducing” and the “capsaicin-induced increases in sEPSC frequency after pretreatment with pertussis toxin” value ([3]; PTX 0.5 μg/ml for 3 h before capsaicin stimulation) is reported as “fails to inhibit”. The “basal synaptic transmission (sEPSC)” value ([3]; RvE1 alone, 1 ng/ml perfusion) was “did not alter basal synaptic transmission”, the “TNF-α-evoked sEPSC frequency increase” value ([3]; TNF-α 10 ng/ml, RvE1 1 ng/ml, capsazepine 10 μM) was “blocked” and the “capsaicin-evoked sEPSC frequency increase” value ([3]; capsaicin 100 nM, RvE1 1 ng/ml, chemerin 100 ng/ml, PD98059 and U0126 1 μM) was “completely blocked”. For the same molecule, the “TNF-α- and capsaicin-elicited increases in phosphorylation of ERK (pERK)” value [4] was “abolished” and the postoperative pain [5] was “effectively abolish”.

From patent US20120245229A1, “METHOD FOR TREATING NEUROPATHIC PAIN” (priority 2009, published 2012)
